This passage reports IC50 results from US8729087B2, “Compositions and methods for inhibition of the JAK pathway” (Rigel Pharmaceuticals, Inc., priority 2006, dated 2014).

SMILES strings stand for the structures. Where two headings read alike, the source gives them in different places.

Experiment [1] deals with Primary human T-cells. The experiment can be described thus: Primary Human T-Cell Proliferation Assay Stimulated with IL-2 (CellTiter-Glo). Format: cell-based. The note with it: read-out: Example 3 (IC50, primary human T-cell proliferation stimulated with IL-2). An excerpt: The activity of the active compounds of the invention may further be characterized by assaying the effect of the 2,4-pyrimidinediamine compounds described herein on the proliferative response of primary human T-cells. In this assay, primary human T-cells derived from peripheral blood and pre-activated through stimulation of the T-cell receptor and CD28, proliferate in culture in response to the cytokine Interleukin-2 (IL-2). This proliferative response is dependent on the activation of JAK1 and JAK3 tyrosine kinases, which phosphorylate and activate the transcription factor Stat-5. The primary human T-cells are incubated with the 2,4-pyrimidinediamine compounds in the presence of IL-2 for 72 hours and at the assay endpoint intracellular ATP concentrations are measured to assess cell viability. A reduction in cell proliferation compared to control conditions is indicative of inhibition of the JAK kinase pathway. An exemplary assay of this type is described in greater detail in Example 3.
Primary human T-cells derived from peripheral blood and pre-activated through stimulation of the T-cell receptor and CD28, proliferate in vitro in response to the cytokine Interleukin-2 (IL-2). This proliferative response is dependent on the activation of JAK-1 and JAK-3 tyrosine kinases, which phosphorylate and activate the transcription factor Stat-5.
Human primary T cells were prepared as follows. Whole blood was obtained from a healthy volunteer, mixed 1:1 with PBS, layered on to Ficoll Hypaque (Amersham Pharmacia Biotech, Piscataway, N.J., Catalog #17-1440-03) in 2:1 blood/PBS:ficoll ratio and centrifuged for 30 min at 4° C. at 1750 rpm. The lymphocytes at the serum: ficoll interface were recovered and washed twice with 5 volumes of PBS. The cells were resuspended in Yssel's medium (Gemini Bio-products, Woodland, Calif., Catalog #400-103) containing 40 U/mL recombinant IL2 (R and D Systems, Minneapolis, Minn., Catalog #202-IL (20 μg)) and seeded into a flask pre-coated with 1 μg/mL anti-CD3 (BD Pharmingen, San Diego, Calif., Catalog #555336) and […] (Immunotech, Beckman Coulter of Brea Calif., Catalog #IM1376). The primary T-cells were stimulated for 3-4 days, then transferred to a fresh flask and maintained in RPMI with 10% FBS and 40 U/mL IL-2.
Primary T-cells were washed twice with PBS to remove the IL-2 and resuspended in Yssel's medium at 2×10^6 cells/mL. 50 μL of cell suspension containing 80 U/mL IL-2 was added to each well of a flat bottom 96 well black plate. For the unstimulated control, IL-2 was omitted from the last column on the plate. Compounds were serially diluted in dimethyl sulfoxide (DMSO, 99.7% pure, cell culture tested, Sigma-Aldrich, St. Louis, Mo., Catalog No. D2650) from 5 mM in 3-fold dilutions, and then diluted 1:250 in Yssel's medium. 50 μL of 2× compound was added per well in duplicate and the cells were allowed to proliferate for 72 hours at 37° C.
Proliferation was measured using CellTiter-Glo® Luminescent Cell Viability Assay (Promega), which determines the number of viable cells in culture based on quantitation of the ATP present, as an indicator of metabolically active cells. The substrate was thawed and allowed to come to room temperature. After mixing the Cell Titer-Glo reagent and diluent together, 100 μL was added to each well. The plates were mixed on an orbital shaker for two minutes to induce lysis and incubated at room temperature for an additional ten minutes to allow the signal to equilibrate. Detection was performed using a Wallac Victor2 1420 multilabel counter purchased from Perkin Elmer, Shelton, Conn.
Background: ATP-based viability assays read luminescence as a measure of living cells.

Experiment [2] deals with Ramos B-cell line stimulated with IL-4. The experiment can be described thus: Assay for Ramos B-Cell Line Stimulated with IL-4 (CD23 upregulation, FACS). As to conditions: read-out: Example 2 (IC50, Ramos B-cell line stimulated with IL-4). Format: cell-based, human. From the text: One means of assaying for such inhibition is detection of the effect of the 2,4-pyrimidinediamine compounds on the upregulation of downstream gene products. In the Ramos/IL4 assay, B-cells are stimulated with the cytokine Interleukin-4 (IL-4) leading to the activation of the JAK/Stat pathway through phosphorylation of the JAK family kinases, JAK1 and JAK3, which in turn phosphorylate and activate the transcription factor Stat-6. […] To study the effect of inhibitors (e.g., the 2,4-substituted pyrimindinediamine compounds described herein) on the JAK1 and JAK3 kinases, human Ramos B cells are stimulated with human IL-4. Twenty to 24 hours post stimulation, cells are stained for upregulation of CD23 and analyzed using flow cytometry (FACS). […] An exemplary assay of this type is described in greater detail in Example 2.
B-cells stimulated with cytokine Interleukin-4 (IL-4) activate the JAK/Stat pathway through phosphorylation of the JAK family kinases, JAK-1 and JAK-3, which in turn phosphorylate and activate the transcription factor Stat-6. […] To study the effect of inhibitors on the JAK family kinases, human Ramos B cells are stimulated with human IL-4.
The Ramos B-cell line was acquired from ATCC (ATCC Catalog No. CRL-1596). The cells were cultured in RPMI 1640 (Cellgro, MediaTech, Inc., Herndon, Va., Cat No. 10-040-CM) with 10% fetal bovine serum (FBS), heat inactivated (JRH Biosciences, Inc, Lenexa, Kans., Cat No. 12106-500M) according to ATCC propagation protocol. Cells were maintained at a density of 3.5×10^5. The day before the experiment, Ramos B-cells were diluted to 3.5×10^5 cells/mL to ensure that they were in a logarithmic growth phase.
Cells were spun down and suspended in RPMI with 5% serum. 5×10^4 cells were used per point in a 96-well tissue culture plate. Cells were pre-incubated with compound or DMSO (Sigma-Aldrich, St. Louis, Mo., Cat No. D2650) vehicle control for 1 hour in a 37° C. incubator.
Cells were then stimulated with IL-4 (Peprotech Inc., Rocky Hill, N.J., Cat No. 200-04) for a final concentration of 50 units/mL for 20-24 hours. Cells were then spun down and stained with anti-CD23-PE (BD Pharmingen, San Diego, Calif., Cat No. 555711) and analyzed by FACS. Detection was performed using a BD LSR I System Flow Cytometer, purchased from Becton Dickinson Biosciences of San Jose, Calif.

[3] abbreviates: IL-2, 72 hours, ATP quantitation (CellTiter-Glo).
The mark [4] stands for this setting: IL-4 50 units/mL, 20-24 hours, anti-CD23-PE staining, FACS.
[5] abbreviates: Homo sapiens, T-cell, 72 h, IL-2, 72 hours, ATP quantitation (CellTiter-Glo).
[6] abbreviates: Homo sapiens, Ramos, IL-4 50 units/mL, 20-24 hours, anti-CD23-PE staining, FACS.

`CCS(=O)(=O)NCc1ccc(Nc2nc(Nc3ccc(CS(=O)(=O)NC)cc3)ncc2F)cc1` [Compound I-10, N4-(4-ethylsulfonylaminomethyl)phenyl-5-fluoro-N2-(4-methylaminosulfonylmethyl)phenyl-2,4-pyrimidinediamine]: the IC50 in experiment [1] (setting [3]) worked out at 424 nM; in experiment [2] (setting [4]), 285 nM.

`Cc1cnc(Nc2ccc(CNS(=O)(=O)C3CC3)cc2)nc1Nc1ccc(CNS(=O)(=O)C2CC2)cc1` [II-1, N2,N4-bis(4-cyclopropylsulfonylaminomethyl)phenyl-5-methyl-2,4-pyrimidinediamine]: the IC50 is 26 nM in experiment [1] (setting [3]) and 45.2 nM in experiment [2] (setting [4]).

For the compound `N#CCOc1ccc(Nc2nc(Nc3cccc(CS(N)(=O)=O)c3)ncc2F)cc1` [Compound I-1, N2-[3-(Aminosulfonylmethylene)phenyl]-5-fluoro-N4-(4-cyanomethyleneoxyphenyl)-2,4-pyrimidinediamine], the results for the IC50 in experiment [1] (setting [3]) and in experiment [2] (setting [4]) were 93 nM and 48.9 nM, respectively.

For the compound `C#CCOc1ccc(Nc2nc(Nc3ccc4c(c3)CN(S(N)(=O)=O)CC4)ncc2F)cc1` [III-4, N2-(2-Aminosulfonyl-1,2,3,4-tetrahydroisoquinolin-7-yl)-N4-(4-(prop-2-ynyloxy)phenyl)-5-fluoro-2,4-pyrimidinediamine], the IC50 in experiment [1] (Homo sapiens, T-cell, 72 h) was 129 nM; in experiment [2] (Homo sapiens, Ramos), 101 nM.

Turning to `CCS(=O)(=O)NCc1ccc(Nc2nc(Nc3ccc(CS(=O)(=O)NC)cc3)ncc2C)cc1` [Compound I-2, N4-(4-ethylsulfonylaminomethyl)phenyl-5-methyl-N2-(4-methylaminosulfonylmethyl)phenyl-2,4-pyrimidinediamine], the figures for the IC50 in experiment [1] (setting [3]) and in experiment [2] (setting [4]) were 79.6 nM and 70.3 nM, respectively.

For `CC1(C)Oc2cc(Nc3nc(Nc4cccc(CS(N)(=O)=O)c4)ncc3F)cnc2NC1=O` [IV-1, N2-[3-(Aminosulfonylmethylene)phenyl]-N4-[2,2-dimethyl-3-oxo-4H-pyrid[1,4]oxazin-7-yl]-5-fluoro-2,4-pyrimidinediamine], the figures for the IC50 in experiment [1] (setting [3]) and in experiment [2] (setting [4]) were 482 nM and 133 nM, respectively.

As for `COc1cc(Nc2nc(Nc3ccc4c(c3)CN(S(N)(=O)=O)CC4)ncc2F)ccc1Cl` [III-1, N2-(2-Aminosulfonyl-1,2,3,4-tetrahydroisoquinolin-7-yl)-N4-(4-chloro-3-methoxyphenyl)-5-fluoro-2,4-pyrimidinediamine], the values for the IC50 in experiment [1] (setting [5]) and in experiment [2] (setting [6]) were 279 nM and 129 nM, respectively.

For the compound `CN1C(=O)C(C)(C)Oc2cc(Nc3nc(Nc4cccc(CS(N)(=O)=O)c4)ncc3F)cnc21` [IV-2, N2-[3-(Aminosulfonylmethylene)phenyl]-N4-[2,2-dimethyl-3-oxo-4-methyl-pyrid[1,4]oxazin-7-yl]-5-fluoro-2,4-pyrimidinediamine], the IC50 in experiment [1] (setting [3]) was determined as 881 nM; in experiment [2] (setting [4]), 170 nM.

Consider `Cc1cnc(Nc2ccc(S(N)(=O)=O)cc2)nc1Nc1ccc2c(c1)C(NS(C)(=O)=O)CC2` (racemic) [VI-2, (+/−)-N2-(4-Aminosulfonylphenyl)-5-methyl-N4-[1-(methylsulfonyl)aminoindan-6-yl]-2,4-pyrimidinediamine], for which the IC50 in experiment [1] (setting [5]) came out at 1020 nM; in experiment [2] (setting [6]) it was 279 nM.

Turning to `Cc1cnc(Nc2ccc(CCNS(=O)(=O)C3CC3)cc2)nc1Nc1ccc(CCNS(=O)(=O)C2CC2)cc1` [II-2, N2,N4-bis[4-(2-cyclopropylsulfonylamino)ethyl]phenyl-5-methyl-2,4-pyrimidine diamine], the IC50 in experiment [1] (setting [3]) is 317 nM; in experiment [2] (setting [4]), 202 nM.

As for `NS(=O)(=O)N1CCc2ccc(Nc3ncc(F)c(Nc4ccc(CNS(=O)(=O)C5CC5)cc4)n3)cc2C1` [III-2, N2-(2-Aminosulfonyl-1,2,3,4-tetrahydroisoquinolin-7-yl)-N4-[4-(cyclopropylsulfonylaminomethyl)phenyl]-5-fluoro-2,4-pyrimidinediamine], the IC50 came out at 16.6 nM in experiment [1] (setting [5]) and 27.4 nM in experiment [2] (setting [6]).

With `CNS(=O)(=O)Cc1ccc(Nc2ncc(F)c(Nc3ccc(CNS(=O)(=O)C4CC4)cc3)n2)cc1` [Compound I-8, N4-(4-cyclopropylsulfonylaminomethyl)phenyl-5-fluoro-N2-(4-methylaminosulfonylmethyl)phenyl-2,4-pyrimidinediamine], the IC50 turned out to be 229 nM in experiment [1] (setting [3]) and 147 nM in experiment [2] (setting [4]).
